Results published in paper PMC5880945, “D-Arg^0-Bradykinin-Arg-Arg, a Latent Vasoactive Bradykinin B2 Receptor Agonist Metabolically Activated by Carboxypeptidases” (Frontiers in Pharmacology, 2018).
“Also recorded” adds a separate entry of the source. Like-named read-outs stand apart in the source and are kept apart here. Square brackets hold non-standard residues; d marks the D form. Peptide text beside a SMILES is read from it.

Columns and labels:
[1] = target: T1, rat myc-B2R (bradykinin B2 receptor) (Rattus norvegicus, UniProt P25023); test: [3H]BK binding competition assay; conditions: for affinity for rat B2R, in words: rat myc-B2R
T1 construct: expressed in transfected cells
T1 sequence (P25023 1-396): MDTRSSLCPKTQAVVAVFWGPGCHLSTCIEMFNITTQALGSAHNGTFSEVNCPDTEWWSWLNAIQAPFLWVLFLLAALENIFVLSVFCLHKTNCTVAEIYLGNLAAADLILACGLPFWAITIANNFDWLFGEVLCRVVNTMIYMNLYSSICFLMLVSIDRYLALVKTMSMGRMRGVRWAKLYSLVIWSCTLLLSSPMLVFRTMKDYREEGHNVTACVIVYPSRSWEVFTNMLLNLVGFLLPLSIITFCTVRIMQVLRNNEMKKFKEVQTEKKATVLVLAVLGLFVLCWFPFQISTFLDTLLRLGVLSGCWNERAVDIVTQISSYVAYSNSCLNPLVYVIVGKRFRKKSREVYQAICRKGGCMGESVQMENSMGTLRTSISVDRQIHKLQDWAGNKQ
Description: Affinity for the B2R was evaluated using a radioligand binding competition assay performed at 0°C in the presence of peptidase inhibitors that included captopril and PMSF ([Charest-Morin et al., 2014]). Briefly, the binding of 3 nM [^3H]bradykinin (Perkin Elmer Life Sciences; 90 Ci/mmol) to adherent intact Human Embryonic Kidney (HEK 293) cells stably expressing the myc-tagged rat B2R construction ([Charest-Morin et al., 2017]) was applied to construct binding competition curves for a series of unlabeled peptides.
(§1) Results are presented as means ± SEM. Radioligand binding data were fitted by non-linear regression to a one-site competition equation using a least-square method (Prism 5.0, GraphPad Software Inc., San Diego, CA, United States) and IC50 values calculated from this procedure. The same computer program was used to draw concentration-effect curves generated with the contractility assay (least square fitting of sigmoidal dose-response equation with variable slope) and to derive contractile EC50 values. Data describing the dose-response relationship of novel peptides vs. hypotension and heart rate changes, the baseline values of heart rate and mean arterial blood pressure and the effect of drugs on the hemodynamic responses to r-B K and r-BK-RR were assessed by using one-way analysis of variance (ANOVA) followed by the Dunnett’s test (repeated comparison with a common control; Prism 5.0 software).

[2] = system: GFP-tagged rabbit B2R (B2R-GFP); test: B2R-GFP endocytosis and recycling, epifluorescence microscopy, HEK 293 cells; format: cell-based; conditions: 30 min; for B2R-GFP internalization with Plummer’s inhibitor, in words: Plummer’s inhibitor alone
Description: This system, based on a serum-containing culture medium, contains ACE and Arg-carboxypeptidase activities ([Bachvarov et al., 2001]; [Charest-Morin et al., 2014]). r-BK or r-BK-RR were added to 35-mm Petri dishes containing the cells with optional pre-treatment with peptidase inhibitors and the cells were observed as described after 30 min of incubation at 37°C ([Charest-Morin et al., 2014]).

[3] = system: B2R, human isolated umbilical vein; test: Human umbilical vein contractility assay (bioassay for the endogenous B2R); conditions: for EC50: 95% confidence limits in parentheses, read-out: contractile EC50; for contractile potency, in words: human umbilical vein
Description: The institutional research ethics board (CHU de Québec) approved the anonymous use of human umbilical cord segments obtained after elective cesarean section deliveries (file number: 2012-323). Informed written consent was obtained from mothers. Umbilical vein rings, used as a contractile bioassay for the BK B2R, were prepared and suspended in organ baths and submitted to equilibration in Krebs’ solution as described ([Marceau et al., 1994]; [Gera et al., 2011]). The vascular preparation was used to assess the effect of the peptidase inhibitors (introduced 30 min before the agonist) on the apparent potency of r-BK and r-BK-RR. The full cumulative concentration-effect curves were recorded for each peptide; a large concentration of BK (9.4 μM) was added to record the maximal contractile effect mediated by the B2Rs for low potency agonists. Tissues were used only once and discarded; controls curves were obtained from other vascular rings from the same vein.
as §1

anesthetized rats = test: In vivo hemodynamics in anesthetized rats, dose-response; design: species or system male Sprague-Dawley rats; conditions: for hypotensive potency, r-BK vs r-BK-RR, in words: i.v. bolus 0.025–12.8 μg/kg; for heart rate response, in words / peptide doses giving hypotensive response significantly greater than vehicle: i.v. bolus; for heart rate response, in words: after brief bradycardic injection artifact, statistically significant only at the highest tested doses; for peptide doses giving hypotensive response significantly greater than vehicle: vs BSA-saline vehicle (Dunnett’s test)
Description: All surgical and experimental procedures were reviewed and approved by the Animal Care and Handling Committee of Laval University, in accordance with the Canadian Council on Animal Care. Experiments were performed on male Sprague-Dawley rats (300–375 g) purchased from Charles River Laboratories (St-Constant, QC, Canada). The rats were housed in a light-controlled (12:12-h light-dark cycle (lights on at 0600)) and temperature-regulated room (22 ± 1°C). Animals had free access to normal chow diet and tap water. They were allowed to acclimate to their environmental conditions for 1 week prior to being studied. At the end of the acclimation period, the rats were anesthetised with sodium pentobarbital (50 mg kg^-1, i.p., supplemented as required) and had one catheter implanted into the right jugular vein [for intravenous (i.v.) injection] and one into the left femoral artery [for direct and continuous measurement of blood pressure and heart rate as previously described ([Jean et al., 2016])]. Experiments started at least 20 min following the end of surgery in anesthetised rats.
Baseline measurements of heart rate and phasic and mean arterial blood pressure were recorded over a period of 15 min in anesthetized rats. A dose response curve was then obtained by recording changes in blood pressure and heart rate elicited by i.v. injection of peptide vehicle followed by increasing doses (0.025–12.8 μg/kg) of r-BK or r-BK-RR. Peptides were dissolved in isotonic saline (0.9% NaCl) containing 0.1% BSA to prevent the adsorption of peptide to the glassware and plastic surfaces. All i.v. injections were given as 100 μl boluses which were washed in with a further 100 μl of saline (the dead space of the catheter). Only one peptide was tested per group of rats and each injection started with saline-BSA 0.1% followed by the lowest dose of peptide. The next dose was administered once all recorded cardiovascular parameters had returned to baseline after the previous injection (usually 2–10 min). At the end of the experiments each animal was euthanized with an overdose of sodium pentobarbital (240 mg/kg, i.v.).
as §1

[4] = + Plummer’s inhibitor 1 μM, 30 min before agonist
[5] = + enalaprilat 1 μM + Plummer’s inhibitor 1 μM, 30 min before agonist
[6] = + enalaprilat 1 μM, 30 min before agonist

| Compound | affinity for rat B2R, in words ([1]; [3H]BK binding competition) | B2R-GFP internalization, in words ([2]; 100 nM, 37°C, serum-containing culture medium, no inhibitor) | B2R-GFP internalization with Plummer’s inhibitor, in words ([2]; 100 nM, 15 min before) | proportion of cells exhibiting internalization of B2R-GFP ([2]; with enalaprilat and/or Plummer’s inhibitor (not influenced by any)) | EC50 [3, 4] | EC50 [3, 5] | EC50 [3, 6] | EC50 ([3]; control (no inhibitor)) | effect of enalaprilat and/or Plummer’s inhibitor on contractile response, in words ([3]; enalaprilat and/or Plummer’s inhibitor, 1 μM each) | contractile potency, in words [3] | hypotensive potency, r-BK vs r-BK-RR, in words (anesthetized rats) | heart rate response, in words (anesthetized rats) | peptide doses giving hypotensive response significantly greater than vehicle (anesthetized rats) | competition on the binding of [3H]BK to B2R, in words ([1]; 100 nM) | decrease of receptor affinity (less potent) ([1]; r-BK-RR, [3H]BK binding competition, rat B2R) | B2R-GFP internalization with enalaprilat + Plummer’s inhibitor, in words ([2]; 100 nM, both inhibitors 15 min before) | B2R-GFP internalization with enalaprilat, in words ([2]; 100 nM, enalaprilat alone, 15 min before) | effect of combination Plummer’s inhibitor + enalaprilat vs. enalaprilat alone, in words ([3]; 1 μM each) | effect of Plummer’s inhibitor on apparent contractile potency, in words ([3]; Plummer’s inhibitor 1 μM) |
| --- | --- | --- | --- | --- | --- | --- | --- | --- | --- | --- | --- | --- | --- | --- | --- | --- | --- | --- | --- |
| N=C(N)NCCC[C@@H](N)C(=O)N[C@@H](CCCNC(=N)N)C(=O)N1CCC[C@H]1C(=O)N1CCC[C@H]1C(=O)NCC(=O)N[C@@H](Cc1ccccc1)C(=O)N[C@@H](CO)C(=O)N1CCC[C@H]1C(=O)N[C@@H](Cc1ccccc1)C(=O)N[C@@H](CCCNC(=N)N)C(=O)O [r-BK, D-Arg^0-BK] (H-[dR]RPPGFSPFR-OH) | practically equal to that of BK | the fluorescent receptor was internalized | no effect | > 90% | 68.4 nM | 45.1 nM | 61.6 nM | 62.4 nM | essentially unaffected; also recorded: enalaprilat failed to potentiate r-BK | potent contractile agent | virtually equipotent hypotensive agents | brief tachycardic response, statistically significant only at the highest tested doses | ≥ 0.4 µg/kg | – | – | – | – | – | – |
| N=C(N)NCCC[C@@H](N)C(=O)N[C@@H](CCCNC(=N)N)C(=O)N1CCC[C@H]1C(=O)N1CCC[C@H]1C(=O)NCC(=O)N[C@@H](Cc1ccccc1)C(=O)N[C@@H](CO)C(=O)N1CCC[C@H]1C(=O)N[C@@H](Cc1ccccc1)C(=O)N[C@@H](CCCNC(=N)N)C(=O)N[C@@H](CCCNC(=N)N)C(=O)N[C@@H](CCCNC(=N)N)C(=O)O [r-BK-RR, D-Arg^0-BK-Arg-Arg] (H-[dR]RPPGFSPFRRR-OH) | direct micromolar affinity; also recorded: very little direct affinity for B2R | – | only a partial effect | – | 850 nM | 1760 nM | 1510 nM | 431 nM | – | less potent than r-BK but more potent than anticipated from the radioligand binding competition assay | virtually equipotent hypotensive agents | brief tachycardic response, statistically significant only at the highest tested doses | ≥ 0.4 µg/kg | little competition | 61 fold | suppress the effect of r-BK-RR | suppress the effect of r-BK-RR | not significantly more effective than enalaprilat alone | only slightly decreased the apparent potency |
